# In US6730792B2, “β3 adrenergic agonists” (Eli Lilly and Company, priority 2000, dated 2004):
# Target: T1, human β3 adrenergic receptor (Homo sapiens, UniProt P13945)
# T1 construct: expressed in transfected cells; host or cells: DXB-11 Chinese hamster ovary (CHO) cell line, stably transfected (phd expression vector)
# Assay: whole cell receptor coupled c-AMP assay, human β3 receptor in CHO cells (EC50, Emax relative to isoproterenol)
# Type: cell-based
# Conditions: % intrinsic activity relative to isoproterenol maximal response; average of at least 3 runs; c-AMP in transfected CHO cells
# From the text: The genes encoding the human β1-adrenergic receptor (Frielle et al., Proc. Natl. Acad. Sci., 84:7920-7924, 1987), the human β2-adrenergic receptor (Kobika et al., Proc. Natl. Acad. Sci., 84:46-50, 1987, Emorine et al., Proc. Natl. Acad. Sci., 84:6995-6999, 1987) and the human β3 adrenergic receptor (Granneman et al., Molecular Pharmacology, 44(2):264-70, 1993) are individually subcloned into a phd expression vector (Grinnell et al., Bio/Technology, 5:1189-1192, 1987) and transfected into the DXB-11 Chinese hamster ovary (CHO) cell line by calcium phosphate precipitation methodology. The stably transfected cells are grown to 95% confluency in 95% Dulbecco's modified Eagles Medium (DMEM), 5% fetal bovine serum and 0.01% proline. Media is removed and the cells are washed with phosphate buffered (pH 7.4) saline (without magnesium and calcium). Cells are then lifted using an enzyme free cell dissociation solution (Specialty Media, Lavallette, N.J.) and pelleted by centrifugation.
# Cells from each of the above cell lines are resuspended and added (20,000/well) to a 96-well plate. Cells are incubated at 37° C. with representative compounds of the invention for 20 minutes in buffer (Hank's balanced salt solution, 10 mM HEPES, 0.1% BSA, 1 mM L-ascorbic acid, 0.2% dimethyl sulfoxide, 1 mm 3-isobutyl-1-methylxanthine, pH 7.4). After halting the incubation with quench buffer (50 mM Na Acetate, 0.25% Triton X-100, pH 5.8), the c-AMP level is quantified by scintillation proximity assay (SPA) using a modification of the commercially available c-AMP kit (Amersham, Arlington Heights, Ill.) with rabbit anti-cAMP antibody (ICN Biomedicals, Aurora, Ohio) for the kit.
# Sigmoidal dose response curves, from the whole cell receptor coupled c-AMP assay are fit to a four parameter logistic equation using non linear regression: y=(a−d)/(1+(Dose/c)^b)+d where a and d are responses at zero and maximal dose, b is the slope factor and c is the EC50 as previously described (DeLean et al., Am. J. Physiol., 235, E97-E102, 1978). EC50 is assessed as the concentration producing 50% of the maximum response to each agonist.
# Isoproterenol is accepted in the art as a non-selective β3 agonist and is widely used as a comparator in evaluating the activity of compounds. See Trends in Pharm. Sci., 15:3, 1994. The % intrinsic activity (Emax) of representative compounds of the invention is assessed relative to isoproterenol by the compound's maximal response divided by the isoproterenol maximal response times 100.
# T1 sequence (P13945 whole entry): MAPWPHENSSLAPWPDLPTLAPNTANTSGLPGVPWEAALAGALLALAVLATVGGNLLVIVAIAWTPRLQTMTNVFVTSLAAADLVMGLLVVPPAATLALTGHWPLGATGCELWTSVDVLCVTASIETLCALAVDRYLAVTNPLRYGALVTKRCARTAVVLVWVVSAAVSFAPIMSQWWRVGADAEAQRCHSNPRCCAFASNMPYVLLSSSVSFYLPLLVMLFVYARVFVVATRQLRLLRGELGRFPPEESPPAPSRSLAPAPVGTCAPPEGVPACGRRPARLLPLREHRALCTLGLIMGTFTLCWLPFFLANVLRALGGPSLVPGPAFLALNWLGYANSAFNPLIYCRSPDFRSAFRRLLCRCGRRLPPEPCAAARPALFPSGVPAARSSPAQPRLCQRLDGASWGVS
row,Compound,Emax (%) ± SEM [%]
1,CC(=O)c1ccc(-c2ccccc2OC[C@@H](O)CNC(C)(C)Cc2ccc(Oc3ccc(S(C)(=O)=O)cc3)cc2)s1.Cl [Example 394],76.9 ± 5.0
2,CC(=O)c1ccc(-c2ccccc2OC[C@@H](O)CNC(C)(C)Cc2ccc(Oc3ncccc3C(N)=O)cc2)s1.O=C(O)C(F)(F)F [Example 419],87.5 ± 1.8
3,CC(C)(Cc1ccc(Oc2ncccc2C(N)=O)cc1)NC[C@H](O)COc1ccccc1-c1cc2ccccc2s1.O=C(O)C(F)(F)F [Example 387],78.7 ± 14.9
4,Cc1ccc(-c2ccccc2OC[C@@H](O)CNC(C)(C)Cc2ccc(Oc3cccnc3C#N)cc2)s1.Cl [Example 422],60.1 ± 8.2

# Same assay, conditions: Emax ± standard error of the mean; average of at least 3 runs except where n = 1; compound tested in the isolated form listed
row,Compound,Emax (%) ± SEM
1,CC(C)(Cc1ccc(Oc2ccc(S(C)(=O)=O)cc2)cc1)NC[C@H](O)COc1ccccc1-c1nccs1.O=C(O)C(F)(F)F [Example 131],43.5 ± 1.4%
2,Cn1nccc1-c1ccccc1OC[C@@H](O)CNC(C)(C)Cc1ccc(Oc2ccc(C#N)cn2)cc1 [Example 3],<10%
3,CC(C)(Cc1ccc(Oc2ccc(C#N)cn2)cc1)NC[C@H](O)COc1ccccc1-c1cscn1.Cl [Example 247],45.4 ± 3.4%
4,CC(C)(Cc1ccc(Oc2ccc(C(N)=O)nc2)cc1)NC[C@H](O)COc1ccccc1-c1ccon1.Cl [Example 298],54.5 ± 0.8%
5,CC(C)(Cc1ccc(Oc2ccc(C#N)cc2)cc1)NC[C@H](O)COc1ccccc1-c1ccno1.O=C(O)C(F)(F)F [Example 121],38.9 ± 7.1%
6,Cn1nccc1-c1ccccc1OC[C@@H](O)CNC(C)(C)Cc1ccc(Oc2ncccc2C#N)cc1 [Example 48],14.4 n = 1%
7,CC(C)(Cc1ccc(Oc2ncccc2C#N)cc1)NC[C@H](O)COc1ccccc1-c1ccon1.Cl [Example 60],70.8 ± 3.1%
8,CC(C)(Cc1ccc(Oc2ccc(C(N)=O)cn2)cc1)NC[C@H](O)COc1ccccc1-c1ccoc1.Cl [Example 43],61.9 ± 2.5%
9,CC(C)(Cc1ccc(Oc2cnccn2)cc1)NC[C@H](O)COc1ccccc1-c1ccno1.O=C(O)C(F)(F)F [Example 155],46.6 ± 4.2%
10,Cn1ccc(-c2ccccc2OC[C@@H](O)CNC(C)(C)Cc2ccc(Oc3ccc(C#N)cn3)cc2)n1 [Example 49],59.1 n = 1%
11,CC(C)(Cc1ccc(Oc2ccc(C(N)=O)cc2Cl)cc1)NC[C@H](O)COc1ccccc1-c1ccno1.O=C(O)C(F)(F)F [Example 166],58.3 ± 9.5%
12,CC(C)(Cc1ccc(Oc2ncccc2C#N)cc1)NC[C@H](O)COc1ccccc1-c1ccno1.Cl [Example 54],66.8 ± 6.8%
13,CC(C)(Cc1ccc(Oc2ccc(C(N)=O)cn2)cc1)NC[C@H](O)COc1ccccc1-c1cscn1.Cl [Example 248],47.5 ± 4.8%
14,CCOC(=O)c1cccnc1Oc1ccc(CC(C)(C)NC[C@H](O)COc2ccccc2-c2cccs2)cc1 [Example 107],84.3 ± 5.3%
15,CC(C)(Cc1ccc(Oc2cccnc2C(N)=O)cc1)NC[C@H](O)COc1ccccc1-c1cccs1.O=C(O)C(F)(F)F [Example 196],74.4 ± 3.3%
16,CC(C)(Cc1ccc(Oc2ccc(C(N)=O)cn2)cc1)NC[C@H](O)COc1ccccc1-n1cccn1.Cl [Example 47],35.5 ± 5.5%
17,CC(C)(Cc1ccc(Oc2ncccc2C(N)=O)cc1)NC[C@H](O)COc1ccccc1N1CCNC1=O [Example 103],21.1 ± 0.1%
18,CC(C)(Cc1ccc(Oc2ccccc2C(N)=O)cc1)NC[C@H](O)COc1ccccc1-n1cccc1.Cl [Example 270],56.4 ± 8.3%
19,CC(C)(Cc1ccc(Oc2ccc(S(C)(=O)=O)cc2Cl)cc1)NC[C@H](O)COc1ccccc1-c1nccs1.O=C(O)C(F)(F)F [Example 182],57.6 ± 7.1%
20,CC(C)(Cc1ccc(Oc2ccc(C(N)=O)cn2)cc1)NC[C@H](O)COc1cccc(-c2ccnc(N)n2)c1 [Example 38],20.5 n = 1%
21,COC(=O)c1ccc(Oc2ccc(CC(C)(C)NC[C@H](O)COc3ccccc3-c3ccn[nH]3)cc2)nc1 [Example 118],29.5 n = 1%

row,Compound,Emax (%) ± SEM
1,CC(C)(Cc1ccc(Oc2ccccn2)cc1)NC[C@H](O)COc1ccccc1-c1cccs1.O=C(O)C(F)(F)F [Example 1],58.1 ± 2.6%
2,Cn1nccc1-c1ccccc1OC[C@@H](O)CNC(C)(C)Cc1ccc(Oc2ccc(S(C)(=O)=O)cc2)cc1 [Example 127],<10%
3,CCOC(=O)c1ccc(Oc2ccc(CC(C)(C)NC[C@H](O)COc3ccccc3-c3nccs3)cc2)c(Cl)c1.O=C(O)C(F)(F)F [Example 222],59.0 ± 10.0%
4,CC(C)(Cc1ccc(Oc2ccc(C#N)cn2)cc1)NC[C@H](O)COc1ccccc1-c1cccs1.O=C(O)C(=O)O [Example 285],24.6 ± 3.8%
5,CCOC(=O)c1ccc(Oc2ccc(CC(C)(C)NC[C@H](O)COc3ccccc3-c3ccno3)cc2)c(Cl)c1.O=C(O)C(F)(F)F [Example 288],52.9 ± 7.4%
6,CC(C)(Cc1ccc(Oc2ncccc2C(N)=O)cc1)NC[C@H](O)COc1ccccc1-c1cccs1.Cl [Example 69],80.7 ± 4.4%
7,CCOC(=O)c1cccnc1Oc1ccc(CC(C)(C)NC[C@H](O)COc2ccccc2-c2ccn(C)n2)cc1 [Example 106],53.2 ± 2.4%
8,CC(C)(Cc1ccccc1-c1ccc(C#N)cc1)NC[C@H](O)COc1ccccc1-c1ccno1.Cl [Example 290],22.7 ± 1.7%
9,CC(C)(Cc1ccc(Oc2ccc(S(C)(=O)=O)cc2)cc1)NC[C@H](O)COc1ccccc1-c1ccon1.Cl [Example 134],47.7 ± 6.5%
10,CC(C)(Cc1ccc(Oc2ccc(S(C)(=O)=O)cc2F)cc1)NC[C@H](O)COc1ccccc1-c1nccs1.O=C(O)C(F)(F)F [Example 224],37.0 ± 0.3%
11,CC(C)(Cc1ccc(Oc2ccc(C(N)=O)nc2)cc1)NC[C@H](O)COc1ccccc1-c1cccs1.O=C(O)C(F)(F)F [Example 205],70.3 ± 0.3%
12,CC(C)(Cc1ccc(Oc2ccc(S(C)(=O)=O)cc2)cc1)NC[C@H](O)COc1ccccc1-c1ccn[nH]1 [Example 133],21.4 n = 1%
13,CC(C)(Cc1ccc(Oc2ccc(C(N)=O)cc2)cc1)NC[C@H](O)COc1ccccc1-c1cccs1.O=C(O)C(F)(F)F [Example 123],73.6 ± 8.2%
14,CC(C)(Cc1ccc(Oc2ccc(C(N)=O)cc2)cc1)NC[C@H](O)COc1ccccc1-n1cccc1.Cl [Example 269],41.3 ± 4.2%
15,CC(C)(Cc1ccc(Oc2ccc(C(N)=O)cc2F)cc1)NC[C@H](O)COc1ccccc1-c1ccno1.O=C(O)C(F)(F)F [Example 192],40.3 ± 6.9%
16,CC(C)(Cc1ccc(Oc2ccc(C#N)cc2F)cc1)NC[C@H](O)COc1ccccc1-c1ccno1.O=C(O)C(F)(F)F [Example 189],35.1 ± 5.2%
17,CC(C)(Cc1ccc(Oc2ncccc2C(N)=O)cc1)NC[C@H](O)COc1ccccc1-c1nc2ccccc2o1 [Example 81],60.4 ± 5.1%
18,CC(C)(Cc1ccc(Oc2ccc(S(C)(=O)=O)cc2)cc1)NC[C@H](O)COc1ccccc1-c1ccno1 [Example 132],34.6 ± 7.8%
19,CC(C)(Cc1ccc(Oc2ncccc2C(N)=O)cc1)NC[C@H](O)COc1ccccc1-c1cscn1.Cl [Example 240],65.7 ± 3.8%
20,CC(C)(Cc1ccc(Oc2ncccc2C(N)=O)cc1)NC[C@H](O)COc1cc(Cl)ccc1-c1nnco1 [Example 87],14.2 n = 1%
